Earlier results on one molecule are cited in patent US9695151B2, “3,4-dihydro-2H-isoquinoline-1-one and 2,3-dihydro-isoindol-1-one compounds” (Hoffmann-La Roche Inc., priority 2013, dated 2017).

Molecules are shown by their SMILES.

In data set [1] the test system is rats with experimental heart failure. Conditions: rat, in vivo; cited from earlier work.
Data set [2] concerns rat model of chronic kidney disease. Conditions: cited from earlier work.
[3] abbreviates: angiotensin II and high salt treatment.

With `N#Cc1ccc([C@H]2CCCc3cncn32)cc1` [FAD286], in data set [1], the “blood pressure and cardiovascular function and structure” value is “improved”; the “kidney function and morphology” value is recorded as “improve”. Further, in data set [2] (setting [3]), the “cardiac and aortic medial hypertrophy” value is given as “attenuated”; the “renal effects (albuminuria, azotemia, renovascular hypertrophy, glomerular injury, PAI-1 and osteopontin mRNA, tubulointerstitial fibrosis)” value is given as “prevented”. Also, the “angiotensin II and salt-stimulated PAI-1 mRNA expression” value in data set [2] (aorta and heart) is given as “not”. Also, the plasma aldosterone result in data set [2] (following 4 weeks of treatment) is recorded as “reduced”.
